Test results as given in ChEMBL document CHEMBL1149138 (J Med Chem, 2004).
pIC50: −log10 of the molar value.

Assays:
[1] = target: Neuraminidase (Influenza A virus (A/Puerto Rico/8/1934(H1N1)), UniProt P03468)
[2] = target: Neuraminidase (Influenza B virus (strain B/Lee/1940), UniProt P03474); set-up: species or system Influenza B virus (strain: B/Lee/40)
[3] = system: Mus musculus; assay: Maximum weight lose in influenza A infected mice when treated by the compound at a dose of 10 mg/kg/day b.i.d.; assay type: functional
[4] = system: Mus musculus; assay: Maximum weight lose in influenza A infected mice when treated by the compound at a dose of 0 mg/kg/day b.i.d.; assay type: functional
[5] = system: Mus musculus; assay: Maximum weight lose in influenza A infected mice when treated by the compound at a dose of 0.1 mg/kg/day b.i.d.; assay type: functional
[6] = system: Mus musculus; assay: Maximum weight lose in influenza A infected mice when treated by the compound at a dose of 1 mg/kg/day b.i.d.; assay type: functional

Neuraminidase (Influenza A virus (A/Puerto Rico/8/1934(H1N1)), UniProt P03468), sequence (P03468 whole entry): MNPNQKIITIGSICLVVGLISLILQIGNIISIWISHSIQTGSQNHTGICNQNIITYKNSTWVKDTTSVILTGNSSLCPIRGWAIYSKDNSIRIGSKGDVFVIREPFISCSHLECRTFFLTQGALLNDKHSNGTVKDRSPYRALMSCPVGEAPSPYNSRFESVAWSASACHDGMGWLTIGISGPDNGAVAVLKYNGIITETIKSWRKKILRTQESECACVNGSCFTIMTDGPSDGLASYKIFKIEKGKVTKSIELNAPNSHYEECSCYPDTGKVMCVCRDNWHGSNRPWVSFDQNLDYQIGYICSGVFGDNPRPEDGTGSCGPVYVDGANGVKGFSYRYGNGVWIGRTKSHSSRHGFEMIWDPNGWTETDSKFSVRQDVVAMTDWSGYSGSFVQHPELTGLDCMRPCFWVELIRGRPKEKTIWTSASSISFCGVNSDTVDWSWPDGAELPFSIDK
Neuraminidase, sequence (P03474 whole entry): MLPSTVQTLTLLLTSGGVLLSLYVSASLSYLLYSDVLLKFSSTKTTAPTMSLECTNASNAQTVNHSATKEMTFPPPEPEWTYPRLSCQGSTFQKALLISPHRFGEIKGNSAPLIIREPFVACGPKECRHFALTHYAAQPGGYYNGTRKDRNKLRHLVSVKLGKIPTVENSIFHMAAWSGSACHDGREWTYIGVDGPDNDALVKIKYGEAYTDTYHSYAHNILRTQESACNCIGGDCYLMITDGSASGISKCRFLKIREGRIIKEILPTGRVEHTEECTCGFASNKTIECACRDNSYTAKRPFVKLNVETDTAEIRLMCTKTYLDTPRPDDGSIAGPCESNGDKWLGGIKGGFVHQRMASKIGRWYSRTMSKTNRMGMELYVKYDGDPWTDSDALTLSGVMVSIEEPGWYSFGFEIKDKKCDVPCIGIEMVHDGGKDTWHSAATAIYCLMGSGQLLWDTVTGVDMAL

| Structure (SMILES) | pIC50 [2] | other results |
| --- | --- | --- |
| CC(=O)NC(C(=O)O)[C@@H]1CCC(=C2SCCCS2)C1 (single isomer, unassigned) | 5.07 | pIC50 [1]: 7.37 |
| CCN(CC)C(=O)C(NC(C)=O)[C@H]1C[C@@H](C(=O)O)C[C@@H]1N=C(N)N (stereo partly specified) | 5.82 | pIC50 [1]: 8.15 |
| CCCC(C)NC(=O)C(NC(C)=O)[C@H]1CC(C(=O)O)C[C@@H]1N=C(N)N (stereo partly specified) | 4.91 | – |
| CC(=O)NC(C(=O)NCCc1ccccc1)[C@H]1CC(C(=O)O)C[C@@H]1N=C(N)N (stereo partly specified) | 4.15 | – |
| CCN(CCO)C(=O)C(NC(C)=O)[C@H]1CC(C(=O)O)C[C@@H]1N=C(N)N (stereo partly specified) | < 4.52 | – |
| CC(=O)NC(C(=O)N(C)CCc1ccccc1)[C@H]1CC(C(=O)O)C[C@@H]1N=C(N)N (stereo partly specified) | 4.57 | – |
| C=CCNC(=O)C(NC(C)=O)[C@H]1CC(C(=O)O)C[C@@H]1N=C(N)N (stereo partly specified) | 5.37 | – |
| CCCCCCN(C)C(=O)C(NC(C)=O)[C@H]1CC(C(=O)O)C[C@@H]1N=C(N)N (stereo partly specified) | < 4.52 | – |
| CCNC(=O)C(NC(C)=O)[C@H]1CC(C(=O)O)C[C@@H]1N=C(N)N (stereo partly specified) | 5.51 | – |
| CCCN(C)C(=O)C(NC(C)=O)[C@H]1CC(C(=O)O)C[C@@H]1N=C(N)N (stereo partly specified) | 5.21 | – |
| CC(=O)NC(C(=O)N1CCCC(C)C1)[C@H]1CC(C(=O)O)C[C@@H]1N=C(N)N (stereo partly specified) | < 5.00 | – |
| CC(=O)NC(C(=O)N1CCCCC1C)[C@H]1CC(C(=O)O)C[C@@H]1N=C(N)N (stereo partly specified) | 4.98 | – |
| CCCN(CCC)C(=O)C(NC(C)=O)[C@H]1C[C@](O)(C(=O)O)C[C@@H]1N=C(N)N (stereo in doubt) | 4.48 | pIC50 [1]: 5.31 |
| CCC1CCCCN1C(=O)C(NC(C)=O)[C@H]1CC(C(=O)O)C[C@@H]1N=C(N)N (stereo partly specified) | 5.51 | – |
| CCN(CC)C(=O)C(NC(C)=O)[C@H]1C[C@@](O)(C(=O)O)C[C@@H]1N=C(N)N (stereo partly specified) | – | pIC50 [1]: 5.80 |
| CC(=O)NC(C(=O)N1CCCC1)[C@H]1CC(C(=O)O)C[C@@H]1N=C(N)N (stereo partly specified) | 4.62 | – |
| CCCCC(CC)NC(=O)C(NC(C)=O)[C@H]1CC(C(=O)O)C[C@@H]1N=C(N)N (stereo partly specified) | 4.80 | – |
| CC(=O)NC(C(=O)O)[C@@H]1CCC(=C2SCCCS2)C1 (mixture of isomers; form 1) | 5.52 | Max weight loss [3]: 3.1%; pIC50 [1]: 8.15; Max weight loss [4]: 27.5%; Max weight loss [5]: 12.7%; Max weight loss [6]: 8.7% |
| CCCCN(C)C(=O)C(NC(C)=O)[C@H]1CC(C(=O)O)C[C@@H]1N=C(N)N (stereo partly specified) | 4.74 | – |
| CC(=O)NC(C(=O)O)[C@@H]1CCC(=C2SCCCS2)C1 (stereo in doubt) | – | pIC50 [1]: 4.60 |
| COCC(C)NC(=O)C(NC(C)=O)[C@H]1CC(C(=O)O)C[C@@H]1N=C(N)N (stereo partly specified) | 4.60 | – |
| CC(=O)NC(C(=O)N(C)C(C)C)[C@H]1CC(C(=O)O)C[C@@H]1N=C(N)N (stereo partly specified) | 5.17 | – |
| CCC(COC)NC(=O)C(NC(C)=O)[C@H]1CC(C(=O)O)C[C@@H]1N=C(N)N (stereo partly specified) | 4.70 | – |
| CCCCC(C)NC(=O)C(NC(C)=O)[C@H]1CC(C(=O)O)C[C@@H]1N=C(N)N (stereo partly specified) | 4.43 | – |

| Structure (SMILES) | pIC50 [2] | other results |
| --- | --- | --- |
| CC(=O)NC(C(=O)N1CCC1)[C@H]1CC(C(=O)O)C[C@@H]1N=C(N)N (stereo partly specified) | 5.08 | – |
| CCCN(CCC)C(=O)C(NC(C)=O)[C@H]1C[C@@](O)(C(=O)O)C[C@@H]1N=C(N)N (stereo partly specified) | – | pIC50 [1]: 6.33 |
| CCCCNC(=O)C(NC(C)=O)[C@H]1CC(C(=O)O)C[C@@H]1N=C(N)N (stereo partly specified) | 4.33 | – |
| CCN(CC)C(=O)C(NC(C)=O)[C@H]1CC(C(=O)O)C[C@@H]1N=C(N)N (stereo partly specified) | 5.52 | – |
| CC(=O)NC(C(=O)N1CCCCC1)[C@H]1CC(C(=O)O)C[C@@H]1N=C(N)N (stereo partly specified) | 5.16 | – |
| CCCN(CCC)C(=O)C(NC(C)=O)[C@H]1C[C@](O)(C(=O)O)C[C@@H]1N=C(N)N (mixture of isomers) | – | pIC50 [1]: 2.64 |
| CC(=O)NC(C(=O)N1CCCCCC1)[C@H]1CC(C(=O)O)C[C@@H]1N=C(N)N (stereo partly specified) | 4.60 | – |
| CCCN(CC1CC1)C(=O)C(NC(C)=O)[C@H]1CC(C(=O)O)C[C@@H]1N=C(N)N (stereo partly specified) | 4.62 | – |
| CCCN(CC)C(=O)C(NC(C)=O)[C@H]1CC(C(=O)O)C[C@@H]1N=C(N)N (stereo partly specified) | 5.15 | – |
| CC(=O)NC(C(=O)NC(C)CC(C)C)[C@H]1CC(C(=O)O)C[C@@H]1N=C(N)N (stereo partly specified) | 4.94 | – |
| CC(=O)NC(C(=O)N1CCC(C)CC1)[C@H]1CC(C(=O)O)C[C@@H]1N=C(N)N (stereo partly specified) | 4.37 | – |
| CC(=O)NC(C(=O)NC(C)C)[C@H]1CC(C(=O)O)C[C@@H]1N=C(N)N (stereo partly specified) | 5.34 | – |
| C=CCN(C)C(=O)C(NC(C)=O)[C@H]1CC(C(=O)O)C[C@@H]1N=C(N)N (stereo partly specified) | 4.93 | – |
| CCC(CC)NC(=O)C(NC(C)=O)[C@H]1CC(C(=O)O)C[C@@H]1N=C(N)N (stereo partly specified) | 5.52 | – |
| CC(=O)NC(C(=O)N1CCSCC1)[C@H]1CC(C(=O)O)C[C@@H]1N=C(N)N (stereo partly specified) | 4.54 | – |
| CC(=O)NC(C(=O)NC(C)CCc1ccccc1)[C@H]1CC(C(=O)O)C[C@@H]1N=C(N)N (stereo partly specified) | 4.90 | – |
| CC(=O)NC(C(=O)N1CC(C)CC(C)C1)[C@H]1CC(C(=O)O)C[C@@H]1N=C(N)N (stereo partly specified) | < 4.00 | – |
| CCC(C)NC(=O)C(NC(C)=O)[C@H]1CC(C(=O)O)C[C@@H]1N=C(N)N (stereo partly specified) | 4.78 | – |
| CC(=O)NC(C(=O)O)[C@@H]1CCC(=C2SCCCS2)C1 (mixture of isomers; form 2) | 5.52 | pIC50 [1]: 7.22 |
| CCCC1CCCCN1C(=O)C(NC(C)=O)[C@H]1CC(C(=O)O)C[C@@H]1N=C(N)N (stereo partly specified) | 4.84 | – |
| CCCN(CCC)C(=O)C(NC(C)=O)[C@H]1CC(C(=O)O)C[C@@H]1N=C(N)N (stereo partly specified) | 5.04 | – |
| CCN(Cc1ccccc1)C(=O)C(NC(C)=O)[C@H]1CC(C(=O)O)C[C@@H]1N=C(N)N (stereo partly specified) | < 4.52 | – |
| CC(=O)NC(C(=O)N1CCOCC1)[C@H]1CC(C(=O)O)C[C@@H]1N=C(N)N (stereo partly specified) | 5.11 | – |
